According to publication PMC9475448, “What a difference a methylene makes: replacing Glu with Asp or Aad in the Lys-urea-Glu pharmacophore of PSMA-targeting radioligands to reduce kidney and salivary gland uptake” (Theranostics, 2022):

Legend:
[1] = system: LNCaP tumor-bearing mice; assay: Ex vivo biodistribution of 177Lu-labeled ligands in LNCaP tumor-bearing NRG mice
[2] = system: LNCaP tumor and major mouse organs/tissues; assay: Radiation dosimetry calculation with OLINDA software from biodistribution data; conditions: 25-g mouse
Source text: The biodistribution data (available in the Supplemental Table s 5- 6) were used to determine the kinetics input values required by OLINDA. First, each of the values was decayed to its corresponding time point (the values on the table are shown at injection time). Then the different time-points of the uptake data (%IA/g) for each organ were fitted to both mono- exponential ( ) and bi-exponential ( ) functions using in-house software developed in Python. The best fit was selected based on maximizing the coefficient of determination (R2) of the fit and minimizing the residuals. The areas under the curves were analytically calculated based on the parameters obtained from the best fit of each organ and this provided the kinetic input values required by OLINDA.
In the mouse case, the adrenals, blood, fat, and muscle are not modeled in the phantom. These organs were grouped together and included in what OLINDA calls the remainder of the body .
Lastly, the numbers of decays in the tumors were also calculated based on the biodistribution data of the mice and the values were inputted into the sphere model available in OLINDA.

[3] = system: LNCaP tumor-bearing mice; assay: Radioligand therapy study in LNCaP tumor-bearing NRG mice; conditions: 37 MBq injected

[^177Lu]Lu-PSMA-617
Stomach uptake ([1]; 24 h post-injection): 0.044 ± 0.011 %IA/g | Testes uptake ([1]; 24 h post-injection): 0.018 ± 0.003 %IA/g | Tumor uptake ([1]; 24 h post-injection): 13.18 ± 3.151 %IA/g | Tumor:Blood uptake ratio ([1]; 24 h post-injection): 4045 ± 1693 | Tumor:Kidney uptake ratio ([1]; 24 h post-injection): 21.6 ± 8.83 | Tumor:Muscle uptake ratio ([1]; 24 h post-injection): 2905 ± 453 | Tumor:Salivary gland uptake ratio ([1]; 24 h post-injection): 371 ± 129 | Adrenal glands uptake ([1]; 72 h post-injection): 0.007 ± 0.004 %IA/g | Blood uptake ([1]; 72 h post-injection): 0.002 ± 0.001 %IA/g | Blood:Salivary gland uptake ratio ([1]; 72 h post-injection): 0.19 ± 0.08 | Bone uptake ([1]; 72 h post-injection): 0.006 ± 0.003 %IA/g | Brain uptake ([1]; 72 h post-injection): 0.008 ± 0.002 %IA/g | Fat uptake ([1]; 72 h post-injection): 0.006 ± 0.012 %IA/g | Heart uptake ([1]; 72 h post-injection): 0.004 ± 0.001 %IA/g | Intestines uptake ([1]; 72 h post-injection): 0.062 ± 0.080 %IA/g | Kidneys uptake ([1]; 72 h post-injection): 0.181 ± 0.046 %IA/g | Lacrimal glands uptake ([1]; 72 h post-injection): 0.023 ± 0.009 %IA/g | Liver uptake ([1]; 72 h post-injection): 0.021 ± 0.004 %IA/g | Lungs uptake ([1]; 72 h post-injection): 0.011 ± 0.002 %IA/g | Muscle uptake ([1]; 72 h post-injection): 0.004 ± 0.004 %IA/g | Pancreas uptake ([1]; 72 h post-injection): 0.003 ± 0.001 %IA/g | Salivary glands uptake ([1]; 72 h post-injection): 0.012 ± 0.003 %IA/g | Spleen uptake ([1]; 72 h post-injection): 0.016 ± 0.005 %IA/g | Stomach uptake ([1]; 72 h post-injection): 0.096 ± 0.155 %IA/g | Testes uptake ([1]; 72 h post-injection): 0.014 ± 0.012 %IA/g | Thyroid uptake ([1]; 72 h post-injection): 0.009 ± 0.002 %IA/g | Tumor uptake ([1]; 72 h post-injection): 11.0±2.12 %IA/g | Tumor:Blood uptake ratio ([1]; 72 h post-injection): 5784 ± 1756 | Tumor:Kidney uptake ratio ([1]; 72 h post-injection): 62.4 ± 11.1 | Tumor:Muscle uptake ratio ([1]; 72 h post-injection): 4712 ± 3587 | Tumor:Salivary gland uptake ratio ([1]; 72 h post-injection): 969 ± 241 | Tumor uptake ([1]; 72 h post-injection, listed as [177Lu]Lu-PSMA-617): 10.97 ± 2.122 %IA/g | Adrenal glands uptake ([1]; 120 h post-injection): 0.005 ± 0.008 %IA/g | Blood uptake ([1]; 120 h post-injection): 0.002 ± 0.001 %IA/g | Blood:Salivary gland uptake ratio ([1]; 120 h post-injection): 0.42 ± 0.19 | Bone uptake ([1]; 120 h post-injection): 0.003 ± 0.004 %IA/g | Brain uptake ([1]; 120 h post-injection): 0.007 ± 0.001 %IA/g | Fat uptake ([1]; 120 h post-injection): 0.002 ± 0.001 %IA/g | Heart uptake ([1]; 120 h post-injection): 0.002 ± 0.001 %IA/g | Intestines uptake ([1]; 120 h post-injection): 0.012 ± 0.011 %IA/g | Kidneys uptake ([1]; 120 h post-injection): 0.111 ± 0.054 %IA/g | Lacrimal glands uptake ([1]; 120 h post-injection): 0.021 ± 0.010 %IA/g | Liver uptake ([1]; 120 h post-injection): 0.016 ± 0.004 %IA/g | Lungs uptake ([1]; 120 h post-injection): 0.006 ± 0.001 %IA/g | Muscle uptake ([1]; 120 h post-injection): 0.002 ± 0.002 %IA/g | Pancreas uptake ([1]; 120 h post-injection): 0.001 ± 0.001 %IA/g | Salivary glands uptake ([1]; 120 h post-injection): 0.005 ± 0.002 %IA/g | Spleen uptake ([1]; 120 h post-injection): 0.013 ± 0.004 %IA/g | Stomach uptake ([1]; 120 h post-injection): 0.013 ± 0.013 %IA/g | Testes uptake ([1]; 120 h post-injection): 0.006 ± 0.002 %IA/g | Thyroid uptake ([1]; 120 h post-injection): 0.005 ± 0.001 %IA/g | Tumor uptake ([1]; 120 h post-injection): 12.3±5.52 %IA/g | Tumor:Blood uptake ratio ([1]; 120 h post-injection): 8895 ± 4881 | Tumor:Kidney uptake ratio ([1]; 120 h post-injection): 126 ± 76.0 | Tumor:Muscle uptake ratio ([1]; 120 h post-injection): 11627 ± 7865 | Tumor:Salivary gland uptake ratio ([1]; 120 h post-injection): 3324 ± 2257 | Tumor uptake ([1]; 120 h post-injection, listed as [177Lu]Lu-PSMA-617): 12.25 ± 5.519 %IA/g | Kinetics value ([2]; source organ Brain): 6.64E-03 MBq-h/MBq | Kinetics value ([2]; source organ Cortical bone): 8.28E-03 MBq-h/MBq | Kinetics value ([2]; source organ Heart contents): 3.28E-03 MBq-h/MBq | Kinetics value ([2]; source organ Kidneys): 8.23E-01 MBq-h/MBq | Kinetics value ([2]; source organ Large intestine): 8.80E-03 MBq-h/MBq | Kinetics value ([2]; source organ Liver): 6.38E-02 MBq-h/MBq | Kinetics value ([2]; source organ Lungs): 4.85E-03 MBq-h/MBq | Kinetics value ([2]; source organ Pancreas): 4.76E-03 MBq-h/MBq | Kinetics value ([2]; source organ Remainder of the body): 1.68E-01 MBq-h/MBq | Kinetics value ([2]; source organ Small intestine): 2.63E-02 MBq-h/MBq | Kinetics value ([2]; source organ Spleen): 1.41E-02 MBq-h/MBq | Kinetics value ([2]; source organ Stomach): 2.34E-04 MBq-h/MBq | Kinetics value ([2]; source organ Testes): 4.23E-03 MBq-h/MBq | Kinetics value ([2]; source organ Thyroid): 4.01E-04 MBq-h/MBq | Kinetics value ([2]; source organ Urinary bladder contents): 8.04E-01 MBq-h/MBq | Median survival [3]: 63 days
